Values quoted from earlier work, collected in US20110082867A1, “SYSTEM, METHOD, AND COMPUTER PROGRAM PRODUCT FOR ANALYZING DRUG INTERACTIONS” (priority 2009, published 2011).

Key:
CYP 2D6 = CYP 2D6 (Homo sapiens, UniProt P10635); details: Gene CYP 2D6; involvement strength and type
CYP 2C9 = CYP 2C9 (Homo sapiens, UniProt P11712); details: Gene CYP 2C9; involvement strength and type
CYP 3A4 = CYP 3A4 (Homo sapiens, UniProt P08684); details: Gene CYP 3A4; involvement strength and type
CYP 2E1 = CYP 2E1 (Homo sapiens, UniProt P05181); details: Gene CYP 2E1; involvement strength and type
CYP 2A6 = target: T1, CYP 2A6 (Homo sapiens, UniProt P11509); details: Gene CYP 2A6; involvement strength and type
T1 sequence (P11509 1-494): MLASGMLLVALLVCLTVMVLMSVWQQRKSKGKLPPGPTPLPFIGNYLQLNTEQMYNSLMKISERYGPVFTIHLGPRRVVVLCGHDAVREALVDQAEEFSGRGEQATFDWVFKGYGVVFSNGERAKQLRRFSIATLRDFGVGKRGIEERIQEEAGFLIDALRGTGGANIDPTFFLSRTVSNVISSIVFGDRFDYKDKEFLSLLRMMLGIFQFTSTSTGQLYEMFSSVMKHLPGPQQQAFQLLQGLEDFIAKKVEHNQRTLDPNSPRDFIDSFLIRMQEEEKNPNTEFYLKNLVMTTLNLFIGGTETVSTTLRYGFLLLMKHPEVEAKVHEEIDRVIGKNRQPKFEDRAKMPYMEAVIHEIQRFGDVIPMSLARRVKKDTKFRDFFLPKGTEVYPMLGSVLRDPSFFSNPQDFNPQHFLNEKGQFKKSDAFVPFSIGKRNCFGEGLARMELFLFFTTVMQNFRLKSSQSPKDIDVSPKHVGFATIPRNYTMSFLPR

CYP 1A2 = target: T2, CYP 1A2 (Homo sapiens, UniProt P05177); details: Gene CYP 1A2; involvement strength and type
T2 sequence (P05177 1-516): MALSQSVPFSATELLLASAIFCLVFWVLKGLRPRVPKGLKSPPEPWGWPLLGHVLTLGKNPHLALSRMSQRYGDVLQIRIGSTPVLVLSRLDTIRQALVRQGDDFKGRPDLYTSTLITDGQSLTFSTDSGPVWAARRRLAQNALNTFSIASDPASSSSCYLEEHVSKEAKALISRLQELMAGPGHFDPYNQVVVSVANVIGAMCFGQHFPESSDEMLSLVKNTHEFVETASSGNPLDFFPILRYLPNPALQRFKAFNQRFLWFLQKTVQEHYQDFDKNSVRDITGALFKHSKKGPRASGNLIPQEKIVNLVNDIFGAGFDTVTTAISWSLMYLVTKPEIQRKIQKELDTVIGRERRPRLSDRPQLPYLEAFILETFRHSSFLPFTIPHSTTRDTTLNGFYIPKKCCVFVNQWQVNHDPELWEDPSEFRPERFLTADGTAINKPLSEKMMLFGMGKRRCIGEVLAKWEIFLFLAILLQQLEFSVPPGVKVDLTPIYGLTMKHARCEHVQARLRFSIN

Sequence of CYP 2D6 (P10635 whole entry): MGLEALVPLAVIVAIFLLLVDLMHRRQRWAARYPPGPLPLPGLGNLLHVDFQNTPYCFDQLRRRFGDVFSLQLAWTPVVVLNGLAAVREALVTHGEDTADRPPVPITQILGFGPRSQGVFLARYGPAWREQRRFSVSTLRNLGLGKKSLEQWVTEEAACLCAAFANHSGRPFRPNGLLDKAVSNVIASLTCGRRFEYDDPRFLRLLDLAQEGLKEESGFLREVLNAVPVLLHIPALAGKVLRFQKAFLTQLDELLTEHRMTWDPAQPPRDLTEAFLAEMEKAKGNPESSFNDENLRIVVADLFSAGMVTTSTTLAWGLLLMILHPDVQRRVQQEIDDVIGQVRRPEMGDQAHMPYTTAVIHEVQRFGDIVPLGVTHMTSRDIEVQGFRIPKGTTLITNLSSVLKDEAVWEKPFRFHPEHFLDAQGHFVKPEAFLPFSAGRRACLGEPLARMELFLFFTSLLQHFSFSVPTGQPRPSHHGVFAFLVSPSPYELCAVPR
Sequence of CYP 2E1 (P05181 whole entry): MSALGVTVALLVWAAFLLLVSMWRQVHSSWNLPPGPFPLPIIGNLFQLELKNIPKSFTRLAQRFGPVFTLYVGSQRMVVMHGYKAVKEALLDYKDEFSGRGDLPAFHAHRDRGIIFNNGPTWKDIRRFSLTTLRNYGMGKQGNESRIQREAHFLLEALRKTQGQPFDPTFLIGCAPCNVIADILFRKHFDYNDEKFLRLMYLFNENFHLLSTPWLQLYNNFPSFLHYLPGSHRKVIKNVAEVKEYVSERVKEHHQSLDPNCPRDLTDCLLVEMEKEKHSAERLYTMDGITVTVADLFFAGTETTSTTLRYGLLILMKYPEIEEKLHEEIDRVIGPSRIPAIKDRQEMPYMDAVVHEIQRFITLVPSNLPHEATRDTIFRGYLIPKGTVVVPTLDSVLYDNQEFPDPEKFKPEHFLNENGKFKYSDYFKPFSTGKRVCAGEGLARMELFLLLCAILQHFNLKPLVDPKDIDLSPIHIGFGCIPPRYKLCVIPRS
Sequence of CYP 3A4 (P08684 whole entry): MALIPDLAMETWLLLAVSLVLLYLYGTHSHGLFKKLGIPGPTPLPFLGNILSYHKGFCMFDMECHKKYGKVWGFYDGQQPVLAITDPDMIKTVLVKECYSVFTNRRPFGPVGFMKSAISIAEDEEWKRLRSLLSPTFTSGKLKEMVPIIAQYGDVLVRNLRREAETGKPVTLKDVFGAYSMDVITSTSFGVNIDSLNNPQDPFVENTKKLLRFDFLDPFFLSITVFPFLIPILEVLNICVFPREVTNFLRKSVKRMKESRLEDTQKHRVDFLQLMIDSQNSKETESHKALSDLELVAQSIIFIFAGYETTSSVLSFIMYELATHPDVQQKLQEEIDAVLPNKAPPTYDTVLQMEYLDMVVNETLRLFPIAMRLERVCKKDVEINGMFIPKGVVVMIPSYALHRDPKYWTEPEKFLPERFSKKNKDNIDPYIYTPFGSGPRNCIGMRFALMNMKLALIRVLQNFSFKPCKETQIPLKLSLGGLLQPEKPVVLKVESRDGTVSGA
Sequence of CYP 2C9 (P11712 whole entry): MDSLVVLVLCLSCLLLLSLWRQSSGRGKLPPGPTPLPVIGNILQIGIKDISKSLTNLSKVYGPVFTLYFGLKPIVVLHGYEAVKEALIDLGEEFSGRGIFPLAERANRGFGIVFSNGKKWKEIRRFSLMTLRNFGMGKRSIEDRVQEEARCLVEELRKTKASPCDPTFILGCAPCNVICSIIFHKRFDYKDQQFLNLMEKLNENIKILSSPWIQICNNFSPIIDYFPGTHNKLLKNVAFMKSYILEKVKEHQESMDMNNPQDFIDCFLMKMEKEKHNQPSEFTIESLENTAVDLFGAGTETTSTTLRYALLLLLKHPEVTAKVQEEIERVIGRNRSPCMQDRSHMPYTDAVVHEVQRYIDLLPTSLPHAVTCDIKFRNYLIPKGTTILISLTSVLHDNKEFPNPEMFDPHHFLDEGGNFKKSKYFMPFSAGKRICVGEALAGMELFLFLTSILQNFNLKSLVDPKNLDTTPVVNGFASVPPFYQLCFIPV

Row | SMILES | Drug Interaction (CYP 2D6) | Drug Interaction (CYP 2C9) | Drug Interaction (CYP 3A4) | Drug Interaction (CYP 2E1) | Drug Interaction (CYP 2A6) | Drug Interaction (CYP 1A2)
1 | COc1ccc2c3c1O[C@H]1[C@@H](O)C=C[C@H]4[C@@H](C2)N(C)CC[C@@]341 [Codeine] | Major Substrate |  |  |  |  | 
2 | CC(=O)CC(c1ccccc1)c1c(O)c2ccccc2oc1=O (stereo not shown) [Warfarin] |  | Major Substrate |  |  |  | 
3 | CC(=O)Nc1ccc(O)cc1 [Acetaminophen] | Minor Substrate |  | Minor Substrate | Major Substrate | Minor Substrate | Minor Substrate
